In ChEMBL document CHEMBL2069270, “Exploration of ring size in a series of cyclic vicinal diamines with σ₁ receptor affinity” (Bioorg Med Chem Lett, 2012):

What was measured:
[1] = molecular target: Sigma non-opioid intracellular receptor 1 (Cavia porcellus, UniProt Q60492); experiment: Displacement of [3H](+)-pentazocine from sigma1 receptor in guinea pig brain homogenate; format: tissue-based
[2] = Displacement of [3H]DTG from sigma2 receptor in rat liver homogenate in presence of (+)-pentazocine; format: tissue-based
[3] = Selectivity ratio of Ki for rat sigma2 receptor to Ki for guinea pig sigma1 receptor
[4] = Binding affinity to sigma2 receptor; set-up: species or system Homo sapiens
[5] = Binding affinity to sigma1 receptor
[6] = molecular target: Sigma non-opioid intracellular receptor 1 (Rattus norvegicus, UniProt Q9R0C9); experiment: biochemical
Description: Displacement of [3H](+)-pentazocine from sigma1 receptor in rat brain homogenate after 120 mins

[7] = Binding affinity to sigma2 receptor in guinea pig brain homogenate; format: tissue-based, Cavia porcellus

Chain of Sigma non-opioid intracellular receptor 1 (Cavia porcellus, UniProt Q60492) (Q60492 whole entry): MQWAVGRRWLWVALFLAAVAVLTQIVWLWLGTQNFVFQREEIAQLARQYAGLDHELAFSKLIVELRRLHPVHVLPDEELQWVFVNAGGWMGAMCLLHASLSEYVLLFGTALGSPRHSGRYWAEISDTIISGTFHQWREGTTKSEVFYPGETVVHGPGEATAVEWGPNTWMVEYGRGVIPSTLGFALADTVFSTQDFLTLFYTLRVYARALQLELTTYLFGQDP
Chain of Sigma non-opioid intracellular receptor 1 (Rattus norvegicus, UniProt Q9R0C9) (Q9R0C9 whole entry): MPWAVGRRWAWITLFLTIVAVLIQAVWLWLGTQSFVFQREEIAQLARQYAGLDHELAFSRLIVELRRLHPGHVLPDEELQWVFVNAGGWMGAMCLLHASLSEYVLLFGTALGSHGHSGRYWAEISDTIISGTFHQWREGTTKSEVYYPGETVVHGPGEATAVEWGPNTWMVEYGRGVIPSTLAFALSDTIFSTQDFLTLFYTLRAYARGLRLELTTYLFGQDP

**Q.** With CCCOc1ccc(CN2CCCN(Cc3cc4ccccc4o3)CC2)cc1 as the compound, how does the Ki [1] read?
**A.** Its Ki is 0.152 nM.

**Q.** What about the Ki [2] of the same compound?
**A.** The Ki was 700 nM.

**Q.** And the Ratio Ki [3]?
**A.** The Ratio Ki was 4600.

**Q.** With FCCOc1ccc(CN2CCCN(Cc3cc4ccccc4o3)CC2)cc1 as the compound, how does the Ki [1] read?
**A.** Its Ki is 0.1 nM.

**Q.** And the Ki [2]?
**A.** Its Ki is 88.1 nM.

**Q.** And the Ratio Ki [3]?
**A.** Its Ratio Ki is 881.

**Q.** Which Ki [1] does the source give for CCOc1ccc(CN2CCN(Cc3cc4ccccc4o3)C2)cc1 here?
**A.** The Ki was 19.3 nM.

**Q.** What about the Ki [2] of the same compound?
**A.** Its Ki is 2380 nM.

**Q.** And the Ratio Ki [3]?
**A.** Its Ratio Ki is 123.

**Q.** Which results are given for FCCOc1ccc(CN2CCN(Cc3cc4ccccc4o3)C2)cc1?
**A.** Ki [1]: 6.45 nM; Ki [2]: 1530 nM; Ratio Ki [3]: 237

**Q.** Which Ki [1] does the source give for COc1ccc(CN2CCCN(Cc3cc4ccccc4o3)CC2)cc1 here?
**A.** The Ki was 0.54 nM.

**Q.** And the Ki [2]?
**A.** Its Ki is 119 nM.

**Q.** What about the Ratio Ki [3] of the same compound?
**A.** Its Ratio Ki is 220.

**Q.** Which results are given for COc1cccc(CCN2CCN(CCCc3ccccc3)CC2)c1?
**A.** Ki [4]: 10.2 nM; Ki [5]: 1.4 nM

**Q.** With COc1ccc(CN2CCN(Cc3cc4ccccc4o3)CC2)cc1 as the compound, how does the Ki [1] read?
**A.** Its Ki is 0.18 nM.

**Q.** And the Ki [2]?
**A.** Its Ki is 167 nM.

**Q.** And the Ratio Ki [3]?
**A.** Its Ratio Ki is 929.

**Q.** For CCOc1ccc(CN2CCN(Cc3cc4ccccc4o3)CC2)cc1, which Ki [1] is on record?
**A.** Its Ki is 0.18 nM.

**Q.** What about the Ki [2] of the same compound?
**A.** Its Ki is 1120 nM.

**Q.** What about the Ratio Ki [3] of the same compound?
**A.** The Ratio Ki was 6190.

**Q.** For FCCCOc1ccc(CN2CCCN(Cc3cc4ccccc4o3)CC2)cc1, which Ki [1] is on record?
**A.** Its Ki is 0.12 nM.

**Q.** And the Ki [2]?
**A.** Its Ki is 1380 nM.

**Q.** And the Ratio Ki [3]?
**A.** The Ratio Ki was 11500.

**Q.** Which results are given for COc1ccc(CN2CCN(Cc3cc4ccccc4o3)C2)cc1?
**A.** Ki [1]: 43 nM; Ki [2]: 2500 nM; Ratio Ki [3]: 58

**Q.** For CCOc1ccc(CN2CCCN(Cc3cc4ccccc4o3)CC2)cc1, which Ki [1] is on record?
**A.** The Ki was 0.194 nM.

**Q.** And the Ki [2]?
**A.** The Ki was 292 nM.

**Q.** And the Ratio Ki [3]?
**A.** Its Ratio Ki is 1500.

**Q.** Which Ki [6] does the source give for S=c1sc2ccccc2n1CCCCN1CCN(C2CCCCC2)CC1 here?
**A.** Its Ki is 1.3 nM.

**Q.** Which Ki [1] does the source give for FCCCOc1ccc(CN2CCN(Cc3cc4ccccc4o3)CC2)cc1 here?
**A.** The Ki was 1.61 nM.

**Q.** And the Ki [2]?
**A.** Its Ki is 1360 nM.

**Q.** And the Ratio Ki [3]?
**A.** Its Ratio Ki is 842.

**Q.** Which Ki [1] does the source give for FCCOc1ccc(CN2CCN(Cc3cc4ccccc4o3)CC2)cc1 here?
**A.** Its Ki is 0.05 nM.

**Q.** And the Ki [2]?
**A.** The Ki was 807 nM.

**Q.** What about the Ratio Ki [3] of the same compound?
**A.** The Ratio Ki was 16100.

**Q.** For CCCOc1ccc(CN2CCN(Cc3cc4ccccc4o3)C2)cc1, which Ki [1] is on record?
**A.** The Ki was 53.5 nM.

**Q.** And the Ki [2]?
**A.** The Ki was 6470 nM.

**Q.** What about the Ratio Ki [3] of the same compound?
**A.** The Ratio Ki was 121.

**Q.** For c1ccc(CN2CCN(Cc3ccccc3)CC2)cc1, which Ki [4] is on record?
**A.** Its Ki is 1270 nM.

**Q.** For CCCOc1ccc(CN2CCN(Cc3cc4ccccc4o3)CC2)cc1, which Ki [1] is on record?
**A.** The Ki was 10.3 nM.

**Q.** What about the Ki [2] of the same compound?
**A.** Its Ki is 1470 nM.

**Q.** What about the Ratio Ki [3] of the same compound?
**A.** Its Ratio Ki is 143.

**Q.** For COc1cccc2c1CCCC2CCCN1CCN(Cc2ccccc2)CC1 (stereo unspecified), which Ki [4] is on record?
**A.** Its Ki is 1870 nM.

**Q.** What does the source list for FCCCOc1ccc(CN2CCN(Cc3cc4ccccc4o3)C2)cc1?
**A.** Ki [1]: 20.8 nM; Ki [2]: 3640 nM; Ratio Ki [3]: 175

**Q.** Which Ki [7] does the source give for COc1ccc(CCN2CCN(CCCc3ccccc3)CC2)cc1OC [[11C]SA4503] here?
**A.** Its Ki is 63 nM.
